The values that follow come from patent US20250339385A1, “TOPICAL FORMULATION OF DIMETHYLCURCUMIN” (ANNJI PHARMACEUTICAL CO., LTD., priority 2021, published 2025).

A short description of this data set: Solubility of API (Formula I) in aqueous system / solvents. The format is physicochemical. On the procedure: When the API of Formula I is in the aqueous system, it forms crystals and precipitates out of solution. To investigate a compatible matrix that allows greater Formula I solubility, various systems containing Formula I were stored at room temperature for 24 hours and were examined under a polarized light microscope to observe the presence or absence of Formula I crystal precipitation.

As to dimethylcurcumin [Formula I], the “solubility of API in aqueous phase (aqueous system)” value (aqueous system) was “practically insoluble”. Also, where the note is “diethylene glycol monoethyl ether”, the “solubility of API in diethylene glycol monoethyl ether” value is reported as “good solubility”.
